Measurements: patent publication US20250002473A1, “QUINOXALINE DERIVED SULFONAMIDES WITH EGFR DEGRADATION ACTIVITIES AND THEIR USES THEREOF” (Accutar Biotechnology Inc., priority 2023, published 2025)

How the values were obtained:
Format in all cases: cell-based
[1] = system: A431; assay: Cell growth inhibition assay (CellTiter-Glo), A431; conditions: Homo sapiens, A-431, 72 h, Table 6; A431 cells, three days, CellTiter-Glo; read-out: A431 GI50
Method: (§1) Cells were seeded in a 96-well plate (Corning 3610) with 90 μL of culture medium per well, and plates were incubated at 37° C. overnight. A 1,000× DMSO stock solution of the desired compound was prepared the following day. A compound dilution plate was prepared by diluting the stock solution 1:100 in the corresponding cell culture medium, 10 μL of the diluted compound solution was added to each 96-well plate well containing the seeded cells. […] The content of the wells was mixed by shaking continuously for 10 min, and luminescence was measured using Envision (PerkinElmer). The data were analyzed with GraphPad Prism 9 (see FIG. 50).
(§2) Table 6, Table 7, and Table 8 list the cell growth inhibition results, where Gls0 represents the compound concentration to cause 50% cell growth inhibition in comparison with DMSO.

[2] = target: T1, BaF3_ASV (EGFR_A776inASV) (Homo sapiens, UniProt P00533, DUP767-769); assay: EGFR degradation assay (western blot), BaF3_ASV cells; conditions: BaF3_ASV cells, compounds 24 h, western blot; read-out: BaF3_ASV DC50
T1 construct: expressed in transfected cells; host or cells: Ba/F3 (engineered)
Method: (§3) A431 (EGFR_WT), NCl-H2073 (EGFR_WT), NCl-H292 (EGFR_WT), BaF3_YVAM (Her2_A775insYVAM), BaF3_SVD (EGFR_D770insSVD), BaF3_ASV (EGFR_A776inASV), or BaF3_DTC (EGFR_Exon19del/T790M/C797S) cells were seeded in a 24-well plate at a density of 4×10^5 cells per well for EGFR WT cells and 8× cells per well for EGFR or Her2 mutant cells, and the plates were incubated overnight. The cells were treated with the desired compounds for 24 h. The culture medium was removed, and 100 μL of RIPA buffer (Beyotime, P0013B) containing 1% Protease Inhibitor Cocktail (Bimake, B14001), 1% Phosphatase Inhibitor Cocktail 2 (Sigma, P5726), and 1% Phosphatase Inhibitor Cocktail 3 (Sigma, P0044) were added to lyse the cells. Then, the cell lysates were transferred to 1.5 mL microcentrifuge tubes and centrifuged at 12,000 rpm and 4° C. for 30 min. The supernatants were transferred into new tubes, and the protein concentration was determined using the BCA protein quantification method. All samples were diluted to the same concentration using RIPA buffer, loading buffer was added, samples were denatured, and 15 μg of protein per lane was loaded onto a SurePAGE 4-20% Bis-Tris gel. Samples were separated via electrophoresis in MOPS running buffer at 180 V for 100 min. Then, proteins were transferred onto PVDF membranes using the MiniBlot™ Electrophoretic Transfer Cell Device (Beyotime, E6050). The membrane was blocked using block buffer (LI-COR 927-60001) to prevent non-specific binding. The membrane was incubated with primary antibodies (1:500 dilution, EGFR-CST4405, 1:2000 dilution, Tubulin-ABclonal #AC021) at 4° C. overnight. The membrane was washed three times with 1× TBST buffer for 15 min each. The membrane was incubated with secondary antibodies IRDye 680RD Goat anti-Rabbit IgG Secondary Antibody (1:2000 dilution, LI-COR 926-68071) and IRDye 800CW Goat anti-Mouse IgG Secondary Antibody (1:2000 dilution, LI-COR 926-32210). Finally, the membrane was washed again with 1× TBST buffer 3 times. Fluorescence was detected using the Odyssey CLx Imaging System, and the data were analyzed with Empiria Studio Software and GraphPad Prism 9. Table 4 and Table 5 list the degradation results, where the degradation potency is represented by DC50, the concentration of compounds to cause the degradation of 50% of the corresponding proteins. FIGS. 45-49 show western blots illustrating the EGFR degradative activity of exemplary Compound of the present disclosure and a comparator Compound A in different cell lines 24 h after administration. The Compound referred herein as Compound A is disclosed in WO 2022/171123 A1 (see, compound 133, page 46; published Aug. 18, 2022). WO 2022/171123 A1 discloses phosphine oxide derived molecules with EGFR degradation activity.

[3] = system: BaF3_DTC (EGFR_Exon19del/T790M/C797S); assay: EGFR degradation assay (western blot), BaF3_DTC cells; conditions: BaF3_DTC cells (EGFR_Exon19del/T790M/C797S), compounds 24 h, western blot; read-out: BaF3_DTC DC50
Method: as §3

[4] = system: BaF3_DTC; assay: Cell growth inhibition assay (CellTiter-Glo), BaF3_DTC; conditions: 72 h; Table 6; BaF3_DTC cells, three days, CellTiter-Glo; read-out: BaF3_DTC GI50
Method: as §1, §2

[5] = system: BaF3_ASV; assay: Cell growth inhibition assay (CellTiter-Glo), BaF3_ASV; conditions: 72 h; Table 6; BaF3_ASV cells, three days, CellTiter-Glo; read-out: BaF3_ASV GI50
Method: as §1, §2

T1 sequence (P00533 with tags, fused parts or gaps DUP767-769): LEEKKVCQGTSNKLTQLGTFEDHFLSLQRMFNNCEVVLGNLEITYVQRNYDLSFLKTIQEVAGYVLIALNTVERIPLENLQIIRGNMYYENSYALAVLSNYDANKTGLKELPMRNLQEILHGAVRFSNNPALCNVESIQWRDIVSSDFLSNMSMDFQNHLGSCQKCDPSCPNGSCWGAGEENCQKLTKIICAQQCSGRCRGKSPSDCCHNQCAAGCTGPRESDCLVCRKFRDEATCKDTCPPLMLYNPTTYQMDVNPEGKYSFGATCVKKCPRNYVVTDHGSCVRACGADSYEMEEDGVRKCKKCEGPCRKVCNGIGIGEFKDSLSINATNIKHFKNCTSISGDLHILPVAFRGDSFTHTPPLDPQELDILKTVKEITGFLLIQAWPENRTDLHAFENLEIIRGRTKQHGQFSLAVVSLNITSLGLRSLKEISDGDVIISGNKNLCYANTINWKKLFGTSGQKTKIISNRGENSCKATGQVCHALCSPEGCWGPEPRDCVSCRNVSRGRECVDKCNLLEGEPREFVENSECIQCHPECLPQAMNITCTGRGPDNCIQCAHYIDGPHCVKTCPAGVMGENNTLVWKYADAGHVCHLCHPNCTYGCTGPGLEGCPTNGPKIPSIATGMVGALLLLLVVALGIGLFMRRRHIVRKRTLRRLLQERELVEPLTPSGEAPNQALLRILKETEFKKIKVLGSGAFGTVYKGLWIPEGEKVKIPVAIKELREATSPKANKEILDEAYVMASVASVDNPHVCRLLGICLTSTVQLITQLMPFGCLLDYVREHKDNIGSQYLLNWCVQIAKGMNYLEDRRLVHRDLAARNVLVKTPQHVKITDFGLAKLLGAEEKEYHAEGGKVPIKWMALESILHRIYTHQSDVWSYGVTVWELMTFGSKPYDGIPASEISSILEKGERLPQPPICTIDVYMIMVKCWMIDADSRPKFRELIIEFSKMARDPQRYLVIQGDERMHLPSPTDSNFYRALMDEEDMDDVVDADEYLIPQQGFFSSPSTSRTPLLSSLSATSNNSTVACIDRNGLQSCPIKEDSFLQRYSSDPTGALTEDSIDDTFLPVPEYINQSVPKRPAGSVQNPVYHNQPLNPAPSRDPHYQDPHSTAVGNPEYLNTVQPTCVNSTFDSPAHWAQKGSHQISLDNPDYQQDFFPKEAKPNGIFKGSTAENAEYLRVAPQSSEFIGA

## COc1cc(N2CCC(N3CCN(CC4CCN(c5ccc6c(c5)CN(C5CCC(=O)NC5=O)C6=O)CC4)CC3)CC2)c(-c2cnn(C)c2)cc1Nc1ncc(Br)c(Nc2ccc3nccnc3c2NS(C)(=O)=O)n1 (centres unmarked) [Compound 32, N-(6-((5-bromo-2-((4-(4-(4-((1-(2-(2,6-dioxopiperidin-3-yl)-1-oxoisoindolin-5-yl)piperidin-4-yl)methyl)piperazin-1-yl)piperidin-1-yl)-2-methoxy-5-(1-methyl-1H-pyrazol-4-yl)phenyl)amino)pyrimidin-4-yl)amino)quinoxalin-5-yl)methanesulfonamide]
[1]
  GI50: 214 nM
[2]
  DC50: 26 nM
[3]
  DC50: 3.1 nM
[4]
  GI50: 10.9 nM
[5]
  GI50: 35.6 nM

## CCc1cc(Nc2ncc(Br)c(Nc3ccc4nccnc4c3NS(C)(=O)=O)n2)c(OC)cc1N1CCC(N2CCC(CN3CCN(c4ccc5c(c4)CN([C@H]4CCC(=O)NC4=O)C5=O)CC3)CC2)CC1 [Compound 35, (S)-N-(6-((5-bromo-2-((4-(4-((4-(2-(2,6-dioxopiperidin-3-yl)-1-oxoisoindolin-5-yl)piperazin-1-yl)methyl) [1,4′-bipiperidin]-1′-yl)-5-ethyl-2-methoxyphenyl)amino)pyrimidin-4-yl)amino)quinoxalin-5-yl)methanesulfonamide]
[1]
  GI50: > 1000 nM
[2]
  DC50: 86.5 nM
[3]
  DC50: 66 nM
[4]
  GI50: 13.7 nM
[5]
  GI50: 126 nM

## CCc1cc(Nc2ncc(Br)c(Nc3ccc4nccnc4c3NS(C)(=O)=O)n2)c(OC)cc1N1CCC(N2CCC(N3CCN(c4ccc5c(c4)CN([C@H]4CCC(=O)NC4=O)C5=O)CC3)CC2)CC1 [Compound 36, (S)-N-(6-((5-bromo-2-((4-(4-(4-(2-(2,6-dioxopiperidin-3-yl)-1-oxoisoindolin-5-yl)piperazin-1-yl)-[1,4′-bipiperidin]-1′-yl)-5-ethyl-2-methoxyphenyl)amino)pyrimidin-4-yl)amino)quinoxalin-5-yl)methanesulfonamide]
[1]
  GI50: > 1000 nM
[2]
  DC50: 102 nM
[3]
  DC50: 1.27 nM
[4]
  GI50: 9.12 nM
[5]
  GI50: 77.6 nM

## CCc1cc(Nc2ncc(Br)c(Nc3ccc4nccnc4c3NS(C)(=O)=O)n2)c(OC)cc1N1CCC2(CCN(CC3CCN(c4ccc5c(c4)CN(C4CCC(=O)NC4=O)C5=O)CC3)CC2)CC1 (centres unmarked) [Compound 37, N-(6-((5-bromo-2-((4-(9-((1-(2-(2,6-dioxopiperidin-3-yl)-1-oxoisoindolin-5-yl)piperidin-4-yl)methyl)-3,9-diazaspiro[5.5]undecan-3-yl)-5-ethyl-2-methoxyphenyl)amino)pyrimidin-4-yl)amino)quinoxalin-5-yl)methanesulfonamide]
[1]
  GI50: 382 nM
[2]
  DC50: 102 nM
[3]
  DC50: 8.6 nM
[4]
  GI50: 7.94 nM
[5]
  GI50: 55.7 nM

## CCc1cc(Nc2ncc(Br)c(Nc3ccc4nccnc4c3NS(C)(=O)=O)n2)c(OC)cc1N1CCC(N2CCN(CCN3CCN(c4ccc5c(c4)CN([C@H]4CCC(=O)NC4=O)C5=O)CC3)CC2)CC1 [Compound 39, (S)-N-(6-((5-bromo-2-((4-(4-(4-(2-(4-(2-(2,6-dioxopiperidin-3-yl)-1-oxoisoindolin-5-yl)piperazin-1-yl)ethyl)piperazin-1-yl)piperidin-1-yl)-5-ethyl-2-methoxyphenyl)amino)pyrimidin-4-yl)amino)quinoxalin-5-yl)methanesulfonamide]
[1]
  GI50: 441 nM
[3]
  DC50: 3.13 nM
[4]
  GI50: 11.1 nM
[5]
  GI50: 73.4 nM

## CCc1cc(Nc2ncc(Br)c(Nc3ccc4nccnc4c3NS(C)(=O)=O)n2)c(OC)cc1N1CCC2(CC1)CN(CC1CCN(c3ccc4c(c3)CN(C3CCC(=O)NC3=O)C4=O)CC1)C2 (centres unmarked) [Compound 40, N-(6-((5-bromo-2-((4-(2-((1-(2-(2,6-dioxopiperidin-3-yl)-1-oxoisoindolin-5-yl)piperidin-4-yl)methyl)-2,7-diazaspiro[3.5]nonan-7-yl)-5-ethyl-2-methoxyphenyl)amino)pyrimidin-4-yl)amino)quinoxalin-5-yl)methanesulfonamide]
[1]
  GI50: 399 nM
[2]
  DC50: 93.8 nM
[3]
  DC50: 20.8 nM
[4]
  GI50: 7.99 nM
[5]
  GI50: 60.2 nM

## CCc1cc(Nc2ncc(Br)c(Nc3ccc4nccnc4c3NS(C)(=O)=O)n2)c(OC)cc1N1CCC(N2CCN(CC3(CN4CCN(c5ccc6c(c5)CN([C@H]5CCC(=O)NC5=O)C6=O)CC4)CC3)CC2)CC1 [Compound 42, (S)-N-(6-((5-bromo-2-((4-(4-(4-((1-((4-(2-(2,6-dioxopiperidin-3-yl)-1-oxoisoindolin-5-yl)piperazin-1-yl)methyl)cyclopropyl)methyl)piperazin-1-yl)piperidin-1-yl)-5-ethyl-2-methoxyphenyl)amino)pyrimidin-4-yl)amino)quinoxalin-5-yl)methanesulfonamide]
[1]
  GI50: 606 nM
[2]
  DC50: > 1000 nM
[3]
  DC50: > 100 nM
[4]
  GI50: 86 nM
[5]
  GI50: 105 nM

## CCc1cc(Nc2ncc(Br)c(Nc3ccc4nccnc4c3NS(C)(=O)=O)n2)c(OC)cc1N1CCC(CN2CCN(c3ccc4c(c3)CN([C@H]3CCC(=O)NC3=O)C4=O)CC2)CC1 [Compound 43, (S)-N-(6-((5-bromo-2-((4-(4-((4-(2-(2,6-dioxopiperidin-3-yl)-1-oxoisoindolin-5-yl)piperazin-1-yl)methyl)piperidin-1-yl)-5-ethyl-2-methoxyphenyl)amino)pyrimidin-4-yl)amino)quinoxalin-5-yl)methanesulfonamide]
[1]
  GI50: > 1000 nM
[3]
  DC50: 0.323 nM
[4]
  GI50: 15 nM
[5]
  GI50: 119 nM

## CCc1cc(Nc2ncc(Br)c(Nc3ccc4nccnc4c3NS(C)(=O)=O)n2)c(OC)cc1N1CCN(CC2(CN3CCN(c4ccc5c(c4)CN([C@H]4CCC(=O)NC4=O)C5=O)CC3)CC2)CC1 [Compound 44, (S)-N-(6-((5-bromo-2-((4-(4-((1-((4-(2-(2,6-dioxopiperidin-3-yl)-1-oxoisoindolin-5-yl)piperazin-1-yl)methyl)cyclopropyl)methyl)piperazin-1-yl)-5-ethyl-2-methoxyphenyl)amino)pyrimidin-4-yl)amino)quinoxalin-5-yl)methanesulfonamide]
[1]
  GI50: > 1000 nM
[2]
  DC50: > 1000 nM
[3]
  DC50: 4.11 nM
[4]
  GI50: 18.4 nM
[5]
  GI50: 527 nM

## CCc1cc(Nc2ncc(Br)c(Nc3ccc4nccnc4c3NS(C)(=O)=O)n2)c(OC)cc1N1CCC(N2CCN(CC3CC4(CCN(c5ccc6c(c5)CN(C5CCC(=O)NC5=O)C6=O)CC4)C3)CC2)CC1 (centres unmarked) [Compound 47, N-(6-((5-bromo-2-((4-(4-(4-((7-(2-(2,6-dioxopiperidin-3-yl)-1-oxoisoindolin-5-yl)-7-azaspiro[3.5]nonan-2-yl)methyl)piperazin-1-yl)piperidin-1-yl)-5-ethyl-2-methoxyphenyl)amino)pyrimidin-4-yl)amino)quinoxalin-5-yl)methanesulfonamide]
[1]
  GI50: > 1000 nM
[3]
  DC50: 14.5 nM
[4]
  GI50: 12.1 nM
[5]
  GI50: 47.5 nM
